ChEMBL document CHEMBL1153626, “Rapid assessment of a novel series of selective CB(2) agonists using parallel synthesis protocols: A Lipophilic Efficiency (LipE) analysis” (Bioorg Med Chem Lett, 2009)

Tests used:
Type in all cases: functional, cell-based
[1] = target: Cannabinoid receptor 2 (Homo sapiens, UniProt P34972); test: Agonist activity at human recombinant CB2 receptor expressed in CHO cells assessed as inhibition forskolin-induced cAMP release
[2] = target: T1, Cannabinoid receptor 1 (Homo sapiens, UniProt P21554); test: Agonist activity at human recombinant CB1 receptor expressed in CHO cells at 10 uM by FLIPR assay
[3] = target: T1, Cannabinoid receptor 1; test: Agonist activity at human recombinant CB1 receptor expressed in CHO cells by FLIPR assay

T1 sequence (P21554 whole entry): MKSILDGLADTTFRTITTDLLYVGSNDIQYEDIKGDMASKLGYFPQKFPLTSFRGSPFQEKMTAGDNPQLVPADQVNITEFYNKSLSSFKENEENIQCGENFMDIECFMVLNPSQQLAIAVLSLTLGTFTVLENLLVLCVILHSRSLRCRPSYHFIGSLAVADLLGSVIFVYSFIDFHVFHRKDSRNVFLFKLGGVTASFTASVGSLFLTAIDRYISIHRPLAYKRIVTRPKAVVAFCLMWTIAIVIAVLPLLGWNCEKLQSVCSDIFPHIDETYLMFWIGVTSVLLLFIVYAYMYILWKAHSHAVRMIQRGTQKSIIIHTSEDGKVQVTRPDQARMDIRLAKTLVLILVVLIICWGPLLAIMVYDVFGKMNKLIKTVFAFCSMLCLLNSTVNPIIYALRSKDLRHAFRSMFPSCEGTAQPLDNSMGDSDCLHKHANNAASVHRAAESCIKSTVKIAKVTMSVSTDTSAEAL
Chain of Cannabinoid receptor 2 (P34972 whole entry): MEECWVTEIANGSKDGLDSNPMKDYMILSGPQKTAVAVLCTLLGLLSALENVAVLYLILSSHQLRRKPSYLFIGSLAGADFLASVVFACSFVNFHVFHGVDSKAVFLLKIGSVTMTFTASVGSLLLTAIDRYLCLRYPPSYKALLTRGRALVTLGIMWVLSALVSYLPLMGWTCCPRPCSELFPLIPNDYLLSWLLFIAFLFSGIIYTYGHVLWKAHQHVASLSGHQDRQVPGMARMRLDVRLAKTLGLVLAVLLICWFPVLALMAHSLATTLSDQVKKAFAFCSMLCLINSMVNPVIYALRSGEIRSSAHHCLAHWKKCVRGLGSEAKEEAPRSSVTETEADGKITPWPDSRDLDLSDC

Compound	EC50 [1]	Activity [2]	EC50 [3]
CC(C)(C)Cc1nc2c(n1CC1CC1)CCN(S(=O)(=O)Cc1ccccc1)C2	13.4 nM	15%	–
CC(C)(C)c1nc2c(n1CC1CC1)CCN(S(=O)(=O)Cc1ccccc1)C2	21.8 nM	13%	–
CCCCCN1CCc2c(nc(C(C)(C)C)n2CC2CC2)C1	878 nM	–	–
CC(C)(C)C(=O)N1CCc2c(nc(C(C)(C)C)n2CC2CC2)C1	320 nM	–	–
COc1ncc(Br)cc1CN1CCc2c(nc(C(C)(C)C)n2CC2CC2)C1	295 nM	–	–
CCCCCCC(C)(C)c1ccc([C@@H]2C[C@H](O)CC[C@H]2CCCO)c(O)c1	–	100%	–
CC(C)(C)c1nc2c(n1CC1CC1)CCN(S(C)(=O)=O)C2	403 nM	10%	–
CN(Cc1ccccc1)C(=O)N1CCc2c(nc(C(C)(C)C)n2CC2CC2)C1	637 nM	–	–
CC(C)(C)c1nc2c(n1CC1CC1)CCN(S(=O)(=O)c1ccccc1)C2	7.9 nM	10%	–
CCCOC(=O)N1CCc2c(nc(CC(C)(C)C)n2CC2CC2)C1	560 nM	–	–
COCCS(=O)(=O)N1CCc2c(nc(CC(C)(C)C)n2CC2CC2)C1	21.5 nM	37%	14000 nM
CC(C)(C)c1nc2c(n1CC1CC1)CCN(S(=O)(=O)c1cccnc1)C2	14.2 nM	11%	–
CC(C)(C)Cc1nc2c(n1CC1CC1)CCN(S(=O)(=O)c1cccnc1)C2	24.5 nM	4%	–
Cc1noc(C)c1S(=O)(=O)N1CCc2c(nc(CC(C)(C)C)n2CC2CC2)C1	7 nM	24%	–
Cc1nocc1S(=O)(=O)N1CCc2c(nc(C(C)(C)C)n2CC2CC2)C1	55.4 nM	38%	18000 nM
CCCCC(=O)N1CCc2c(nc(CC(C)(C)C)n2CC2CC2)C1	1020 nM	–	–
CCCCCN1CCc2c(nc(CC(C)(C)C)n2CC2CC2)C1	3000 nM	–	–
CC(C)(C)Cc1nc2c(n1CC1CC1)CCN(S(=O)(=O)c1ccccc1)C2	9.1 nM	9%	–
COCCS(=O)(=O)N1CCc2c(nc(C(C)(C)C)n2CC2CC2)C1	26.7 nM	25%	–
Cc1nocc1S(=O)(=O)N1CCc2c(nc(CC(C)(C)C)n2CC2CC2)C1	18.5 nM	9%	–
CN(Cc1ccccc1)C(=O)N1CCc2c(nc(CC(C)(C)C)n2CC2CC2)C1	523 nM	–	–
CCCN(C)C(=O)N1CCc2c(nc(C(C)(C)C)n2CC2CC2)C1	380 nM	–	–
Cc1noc(C)c1S(=O)(=O)N1CCc2c(nc(C(C)(C)C)n2CC2CC2)C1	5.1 nM	66%	7500 nM
CC(C)(C)Cc1nc2c(n1CC1CC1)CCN(S(C)(=O)=O)C2	439 nM	9%	–
